Laboratory results: article PMC10504053, “First-in-Human PET Imaging of [^18F]SDM-4MP3: A Cautionary Tale” (Molecular Imaging, 2023)

Tests used:
[1] = biological target: T1, synaptic vesicle protein 2A (SV2A) (Rattus norvegicus, UniProt Q02563); assay: Preclinical PET imaging in rats (whole-brain uptake); format: in vivo, Sprague-Dawley rats; conditions: for initial peak uptake in the rodent brain: rat whole-brain time-activity curve
T1 construct: from tissue; host or cells: brain of living Sprague-Dawley rats (in vivo PET)
T1 sequence (Q02563 whole entry): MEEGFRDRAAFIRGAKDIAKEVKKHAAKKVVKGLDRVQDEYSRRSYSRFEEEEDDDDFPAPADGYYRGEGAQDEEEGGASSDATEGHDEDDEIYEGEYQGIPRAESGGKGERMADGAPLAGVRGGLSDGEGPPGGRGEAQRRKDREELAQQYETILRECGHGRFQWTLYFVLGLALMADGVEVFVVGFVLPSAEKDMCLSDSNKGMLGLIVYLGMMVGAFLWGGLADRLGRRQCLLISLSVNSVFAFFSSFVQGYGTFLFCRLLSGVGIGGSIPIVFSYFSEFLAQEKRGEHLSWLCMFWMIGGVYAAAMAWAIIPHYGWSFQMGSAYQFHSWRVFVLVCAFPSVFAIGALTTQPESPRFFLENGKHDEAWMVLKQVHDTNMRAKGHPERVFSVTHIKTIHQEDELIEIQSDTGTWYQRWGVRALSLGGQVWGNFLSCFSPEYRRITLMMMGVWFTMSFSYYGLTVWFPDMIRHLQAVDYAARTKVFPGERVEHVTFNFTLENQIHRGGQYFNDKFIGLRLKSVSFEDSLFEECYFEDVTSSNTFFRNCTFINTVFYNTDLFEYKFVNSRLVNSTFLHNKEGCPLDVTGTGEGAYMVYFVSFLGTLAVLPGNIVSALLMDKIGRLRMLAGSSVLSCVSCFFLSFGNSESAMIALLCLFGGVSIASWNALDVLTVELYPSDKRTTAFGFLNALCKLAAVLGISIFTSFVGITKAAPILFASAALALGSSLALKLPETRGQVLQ
Description: Preclinical PET imaging studies were approved by the Animal Care Committee at CAMH (Animal Use Protocol #838). Six adult Sprague-Dawley rats were scanned for 120 min on either a Mediso nanoScan PET/MR 3 T or PET/CT scanner (Budapest, Hungary), and the images were analyzed using VivoQuant® software (version 4.1, Invicro LLC, Needham, MA, USA), as described previously. Five rats (3 M/2F, 528 ± 46 g) were used for the baseline [^18F]SynVesT-1 scans (injected dose: 13.3 ± 3.2 MBq; molar activity: 157 ± 64 GBq/μmol; mass injected: 0.22 ± 0.08 nmol/kg), with two of the male rats also scanned after injection of the blocking drug levetiracetam (cat#L1784, LKT Laboratories Inc, St Paul, MN, USA) at 30 mg/kg (i.v., 15 min before the tracer; injected dose: 10.2 ± 0.1 MBq; molar activity: 78 ± 15 GBq/μmol; injected mass: 0.24 ± 0.04 nmol/kg). One female rat (273 g) was used for the 120 min scan with [^18F]SDM-4MP3 (injected dose: 13.0 MBq; molar activity: 125.5 GBq/μmol; injected mass: 0.38 nmol/kg). Acquired list mode data were sorted into thirty-nine 3-dimensional (3D) (3 × 5 s, 3 × 15 s, 3 × 20 s, 7 × 60 s, 17 × 180 s, and 6 × 600 s) true sinograms (ring difference 84) and reconstructed with a 2D filtered back-projection algorithm with corrections for detector geometry, efficiencies, attenuation, and scatter and dead time and were decay-corrected to the start of acquisition. Static images of the complete emission acquisition (0-120 min) were reconstructed with the manufacturer's proprietary iterative 3D algorithm (6 subsets and 4 iterations). SUVs were calculated by normalizing regional radioactivity for injected radioactivity and body weight.

[2] = biological target: T2, synaptic vesicle protein 2A (SV2A) (Homo sapiens, UniProt Q7L0J3); assay: Human brain PET imaging (SUV, SUVR, 1-TCM VT with arterial input function); format: in vivo; conditions: for VT (SE %) from fitting of 1-TCM: human brain PET; for SUVR: 60-90 min, centrum semiovale reference; for time of peak brain uptake: P1 ([18F]SDM-4MP3) vs P3 ([18F]SynVesT-1)
T2 construct: from tissue; host or cells: brain of living human participants (in vivo PET)
T2 sequence (Q7L0J3 whole entry): as the sequence (Q02563 whole entry) above, with E53D, A62S, A71T, D144E, T154A, S440G, A482S, V572I, L634M counted along it
Text: All human components of the study were approved according to the Research Ethics Board for Human Subjects at CAMH (CTA 125, REB 075/2019). All participants were recruited from the community and provided written informed consent. Participant inclusion criteria were self-report of good health. Exclusion criteria included any history of neurological or psychiatric disorder; cognitive impairment according to MoCA assessment (score less than 26); pregnancy and/or nursing; and disorders of coagulation, blood, or ongoing use of anticoagulant medication. Each participant's height, weight, current medications, and smoking status was recorded. Participants abstained from taking […] medications, including aspirin [13], for 24 hours prior to the PET exam (see Table 1).
Participants were scanned on a 5-ring GE Discovery MI PET/CT (GE Healthcare Technologies, Chicago, Illinois). Participants 1 and 2 (P1 and P2) were scanned with [^18F]SDM-4MP3 (the radiopharmaceutical synthesized from the ABX precursor), and [^18F]SynVesT-1 (synthesized from the Yale precursor) was used for PET imaging of participants 3 and 4 (P3 and P4). A thermoplastic facemask (Tru-Scan Imaging, Annapolis) was used to restrict head motion within the PET scanner bore. CT was used to acquire a scout scan, followed by a low-dose scan for attenuation correction. The radiopharmaceutical (target dose 185 MBq ± 10%, molar activity > 11 GBq/μmol) was delivered starting 30 s after the initiation of the emission scan, with a smooth bolus injection by hand (2-5 s) via intravenous line placed in the antecubital vein, followed by a 10 mL saline flush to clear residual activity from the line. Emission data was acquired for 120-125 min, allowing up to 5 min for a background frame sampled at 1 s intervals to determine the precise starting time of brain uptake, and used to establish the duration of the background frame inserted prior to dynamic frame reconstruction. Data acquired after the start of brain uptake was reconstructed into frames using FORE rebinning and filtered back-projection, using a Hanning filter at the Nyquist frequency to create a dynamic image set. Frame definitions were 30 s × 3, 60 s × 3, 120 s × 2, 300 s × 22 (total = 120 min). For use as a reference for motion correction, images were also reconstructed without attenuation correction using an iterative method with 4 subsets and 6 iterations. All reconstructions were performed using vendor algorithms on the GE DMI console. […] A spatial resolution of approximately 5.8 × 5.8 × 5.6 mm was achieved (measured in accordance with National Electrical Manufacturers Association NU 2-2007 standards). The mean injected activity was 192.7 MBq for [^18F]SDM-4MP3 and 184.3 MBq for [^18F]SynVesT-1 (Table 1).
(§1) The arterial line was placed into the radial artery by a qualified respiratory therapist. Up to 160 mL of arterial blood was collected via automated blood sampler (ABSS, Comecer PBS-101) and via manual samples for plasma metabolite correction. The ABSS protocol was started ~15 s after emission scan start, and pump speed was set to 300 mL/h, to reduce dispersion in ABSS lines during maximum rate of change of arterial activity concentration, at 1 s sampling period for 5 min and 2 s sampling period for 136 s. Pump speed was decreased to 180 mL/h at a sampling period of 5 s for the following 360 s and a sampling period of 10 s for 540 s, for a total sampling time of 22 min and 16 s. Manual samples were collected at baseline, 2.5, 7, 12, 15, 20, 30, 45, 60, 90, and 110 min relative to emission scan start into PTFE tubes, followed by a saline flush for all except 2.5- and 7-min samples to avoid discontinuities in arterial data during peak uptake.
(1) Image Registration and Region of Interest. […]

SV2A = biological target: SV2A; parameters: method as in PMID 34722967, PMID 24446373; conditions: affinity to SV2A, in vitro binding; cited from earlier work
[3] = Arterial plasma radiometabolite analysis (column-switching HPLC) in human participants; format: in vivo; conditions: human arterial plasma parent fraction, compared with [18F]SynVesT-1
Description: as §1, with “Manual samples were collected at baseline, 2.5, 7, 12, 15, 20, 30, 45, 60, 90, and 110 min relative to emission scan start into PTFE tubes, followed by a saline flush for all except 2.5- and 7-min samples to avoid discontinuities in arterial data during peak uptake.” left out
Baseline whole blood samples were centrifuged at 3100 RPM at room temperature for 5 min to extract plasma. […] Each subsequent manual sample was centrifuged at 3900 rpm at 4°C for 5 min, and 0.3 mL of whole blood and 0.3 mL of plasma were extracted and measured on a gamma counter (Wizard 2480, Perkin Elmer, Turku, Finland) to quantify activity concentration.
(1) Column-Switching HPLC. […] Samples were initially analyzed in capture mode with the capture solvent flow rate of 1.8 mL/min for 4 min before switching to analysis mode with the analysis solvent running at 1.8 mL/min for an additional 12 min. […]

[4] = human brain time-activity curves

Cc1cnccc1CN1C[C@@H](c2cc(F)cc([18F])c2)CC1=O [[^18F]SynVesT-1, reference compound]
initial peak uptake in the rodent brain ([1]; baseline): 7.6 ± 0.7 SUV | brain uptake SUVs in static image ([1]; rat, 0-120 min static image, baseline): ~8 SUV | VT (SE %) from fitting of 1-TCM ([2]; Centrum semiovale, participant P3): 2.9 (1.4%) | VT (SE %) from fitting of 1-TCM ([2]; Centrum semiovale, participant P4): 3.5 (7.7%) | VT (SE %) from fitting of 1-TCM ([2]; Cerebellum, participant P3): 13.1 (0.7%) | VT (SE %) from fitting of 1-TCM ([2]; Cerebellum, participant P4): 16.3 (4.9%) | VT (SE %) from fitting of 1-TCM ([2]; Frontal cortex, participant P3): 15.4 (0.4%) | VT (SE %) from fitting of 1-TCM ([2]; Frontal cortex, participant P4): 18.3 (5.1%) | VT (SE %) from fitting of 1-TCM ([2]; Hippocampus, participant P3): 14.9 (0.6%) | VT (SE %) from fitting of 1-TCM ([2]; Hippocampus, participant P4): 17.0 (6.2%) | VT (SE %) from fitting of 1-TCM ([2]; Putamen, participant P3): 16.1 (0.5%) | VT (SE %) from fitting of 1-TCM ([2]; Putamen, participant P4): 22.23 (4.7%) | SUVR ([2]; cortical regions, human): greater than 7 | time of peak brain uptake [2, 4]: 20 min

Cc1ccncc1CN1CC(c2cc(F)cc(F)c2)CC1=O (centres unmarked) [SDM-4MP3]
Ki (SV2A): 291 nM

Cc1cnccc1CN1C[C@@H](c2cc(F)cc(F)c2)CC1=O [SynVesT-1]
Ki (SV2A): 3.1 nM

Cc1ccncc1CN1C[C@@H](c2cc(F)cc([18F])c2)CC1=O [[^18F]SDM-4MP3]
initial peak uptake in the rodent brain ([1]; baseline): 3.2 SUV | brain uptake in 0-120 min static image ([1]; rat, barely above tissues outside of the brain): very limited brain uptake | whole-brain TAC clearance ([1]; rat, vs. [18F]SynVesT-1): much faster clearance | brain uptake relative to blocked [18F]SynVesT-1 scans ([1]; rat, comparator scans after levetiracetam 30 mg/kg i.v. 15 min before tracer): lower than [^18F]SynVesT-1 scans performed under preblocking conditions with levetiracetam | rate of radiometabolism [3]: slightly slower | VT (SE %) from fitting of 1-TCM ([2]; Centrum semiovale, participant P1): 1.6 (1.8%) | VT (SE %) from fitting of 1-TCM ([2]; Centrum semiovale, participant P2): 1.7 (2.0%) | VT (SE %) from fitting of 1-TCM ([2]; Cerebellum, participant P1): 1.6 (1.4%) | VT (SE %) from fitting of 1-TCM ([2]; Frontal cortex, participant P1): 1.8 (1.6%) | VT (SE %) from fitting of 1-TCM ([2]; Frontal cortex, participant P2): 1.9 (3.4%) | VT (SE %) from fitting of 1-TCM ([2]; Hippocampus, participant P1): 1.8 (1.4%) | VT (SE %) from fitting of 1-TCM ([2]; Hippocampus, participant P2): 1.8 (3.4%) | VT (SE %) from fitting of 1-TCM ([2]; Putamen, participant P1): 2.0 (1.3%) | VT (SE %) from fitting of 1-TCM ([2]; Putamen, participant P2): 2.1 (3.4%) | initial brain penetration (SUV) ([2]; human brain time-activity curves, P1): ~ 7 SUV | clearance from brain ([2]; human brain time-activity curves, in contrast to [18F]SynVesT-1): rapid clearance from brain | time of peak brain uptake [2, 4]: 2.5 min | factor by which VT estimates were lower than expected ([2]; human, one-tissue compartment model, vs expected for [18F]SynVesT-1): > 10 | SUVR ([2]; throughout the brain, human): under 2
